The assay has as its system CEM cells HIV-1 protection, formazan growth assay. Put plainly: NCI AIDS Antiviral Assay. Particulars: for IC50: measured here: growth of uninfected CEM cells. Put shortly: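 Screen of anti-HIV-1 activity in human CEM cells using a formazan-based growth measurement at five drug concentrations. Hits with 50% or greater protection were repeated, and confirmation required reproducible complete protection.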

“And” between values parts separate entries of the source, which are not always exact repeats. Identical values can stand only once. The source made the active and inactive calls.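 Rule for the calls: active = compounds giving half or more protection of infected cells from virus-caused growth loss, again on retest; inactive = the rest.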 Where a SMILES comes first, the peptide text is derived from it. The star is where a group is joined. Cbz = O=C(OCc1ccccc1)*; Boc = CC(C)(C)OC(=O)*; OSu = O=C1CCC(=O)N1O*; tBu = CC(C)(C)*

With `O=[N+]([O-])c1cccc(C2=NN(c3ccccc3)C3c4ccccc4OCC23)c1` (configuration not stated), the EC50 is more than 7.41 µM and the IC50 was more than 7.41 µM.

On to `Cc1c2c(n(CCN(C)C)c1C)NN=C(C#N)S2(=O)=O`, for which the EC50 was more than 200 µM and the IC50 was more than 200 µM.

`C[N+](C)(C)CC(=O)N/N=C(\CCC(=O)NCCc1ccccc1)CC(=O)c1ccccc1`: the result was inactive.

`CCOC(=O)c1c(N2CCCC2)nsc1Nc1ccc(F)cc1`: the EC50 was more than 200 µM and the IC50 was 23.4 µM.

In the case of `O=c1c2ccccc2c2c1c1c3ccccc3c(=O)c1c1c3ccccc3c(=O)c21`, the EC50 was more than 200 µM and the IC50 was more than 200 µM.

On to `O=C1CN=C(c2ccc[nH]2)c2cc(Cl)ccc2N1`, for which the EC50 was 2.45 µM and the IC50 turned out to be 3.98 µM.

As for `COC(=O)[C@]1(C)CCCC2(C)C3=C(CCC21)CC1(CC3)SCCS1` (some centres not stated), the EC50 was more than 186 µM and the IC50 is 74.1 µM.

Consider `O=C(N/N=C\c1ccccn1)c1ccncc1`, for which the EC50 was more than 200 µM and the IC50 turned out to be 91.2 µM.

Regarding `COc1ccc(C2C(C#N)=C(S)N(C3OC(CO)C(O)C(O)C3O)C(c3ccccc3)=C2C(C)=O)cc1` (configuration not stated), the EC50 was more than 200 µM and the IC50 amounted to 89.1 µM.

For `CCOP(C)(=O)C(N)Cc1ccc(OC)c(OC)c1` (configuration not stated), the EC50 is more than 200 µM and the IC50 was more than 200 µM.

On to `COc1ccc(C(=O)c2ccc(OC)c(S(=O)(=O)n3ccnc3)c2)cc1S(=O)(=O)n1ccnc1`, for which the EC50 was more than 35.5 µM and the IC50 stood at 32.4 µM.

Turning to `O=C(O)CCC(NC(=O)c1ccc(Oc2nc3ccccc3nc2-c2ccccc2)cc1)C(=O)O` (configuration not stated), the EC50 is more than 200 µM and the IC50 was more than 200 µM.

As for `c1ccc2c(c1)NC1CCN2C1` (configuration not stated), the EC50 was more than 813 µM and the IC50 is more than 813 µM.

With `O=S(=O)(O)c1cc(N=Nc2ccc(O)cc2)ccc1/C=C/c1ccc(N=Nc2ccc(O)cc2)cc1S(=O)(=O)O`, the EC50 is more than 50.1 µM and the IC50 was determined as 45.7 µM.

As to `NS(=O)(=O)c1nnc(NS(=O)(=O)c2ccc(F)cc2)s1`, the EC50 was more than 200 µM and the IC50 is more than 200 µM.

For `CCCCCC(=O)Nc1n[nH]nc1C(N)=O`, the EC50 is more than 200 µM and the IC50 was more than 200 µM.

In the case of `COc1ccc(/C=C/C(=O)c2ccccc2)cc1OC`, the EC50 was more than 97.7 µM and the IC50 worked out at 18.2 µM.

Take `CCc1ccccc1NC(=O)CCc1n[nH]c(=S)o1`: the EC50 is 44.7 µM and the IC50 worked out at 67.6 µM.

On to `Cc1cc2nn(C3CCCO3)nc2cc1C` (configuration not stated), for which the EC50 is more than 200 µM and the IC50 was more than 200 µM.

For `Nc1nc(Cl)cc(N=Nc2ccccc2)n1`, the EC50 was more than 200 µM and the IC50 worked out at 11.5 µM.

As to `Cc1cc(N(CCC#N)CCC#N)ccc1/C=C1N=C(/C=C/c2ccccc2)OC(=O)N\1`, the EC50 is more than 3.39 µM and the half-inhibitory concentration (IC50) was more than 3.39 µM.

For `[Au+].[Au+].[Au+].[c-]1nccn1Cc1ccccc1.[c-]1nccn1Cc1ccccc1.[c-]1nccn1Cc1ccccc1`, the EC50 is more than 3.55 µM and the IC50 is more than 3.55 µM.

Turning to `CCCCCCCCOCC(O)CO` (configuration not stated), the result was inactive.

Take `O=C1NNC(=O)c2ccccc2SSc2ccccc2C(=O)NNC(=O)c2ccccc2SSc2ccccc21`: the EC50 is 5.01 µM and the IC50 is 25.1 µM.

Turning to `CCCCOC(=O)/C(O)=C(\C=NC(=S)c1cccnc1)C(=O)C=C(C)C`, the EC50 was more than 200 µM and the IC50 was 41.7 µM.

With `CC(c1ccccc1)N1CC(=O)N([C@H](C)c2ccccc2)C1=O` (some centres not stated), the EC50 was more than 200 µM and the IC50 is more than 200 µM.

For the compound `CC1=Nc2ccccc2NC(C)(C)C1`, the EC50 is more than 955 µM; the IC50 was 56.2 µM and 37.2 µM and > 200 µM.

For `CC(C)C1CNC(=O)C2(C=NC(C(C)C)CNC(=O)C3(C=N1)CCCO3)CCCO2` (configuration not stated), the EC50 was more than 12.3 µM and the IC50 is more than 12.3 µM.

`CCNC(=O)C(O)C1(O)CCC2[C@@H]3CCC4=CC(=O)C=C[C@]4(C)C3[C@@H](O)C[C@@]21C` (some centres not stated): the result was inactive.

As to `Cc1cc(=O)oc2cc(O)ccc12`, the EC50 was more than 741 µM; the IC50 was 191 µM and > 200 µM.

Consider `ClC1=NSC(Cl)=NS1`, for which the EC50 was more than 53.7 µM and the IC50 was more than 53.7 µM.

As to `CC[C@@]1(O)C(=O)OCc2c1cc1n(c2=O)Cc2cc3cc(OC)ccc3nc2-1`, the EC50 is more than 0.1 µM and the IC50 was 0.0186 µM.

On to `O=C1CC2(CCC3=C(O2)c2ccccc2NC(=O)C3)C(=O)c2ccccc2N1` (configuration not stated), for which the EC50 was more than 69.2 µM and the IC50 is more than 69.2 µM.

With `O=[N+]([O-])c1c(Cl)cccc1-c1c[nH]cc1Cl`, the EC50 is more than 263 µM and the IC50 is 61.7 µM.

With `CC(=O)N1N=C(N)CC1=O`, the EC50 is more than 200 µM and the IC50 was more than 200 µM.

On to `Clc1nc(Cl)c2sc(=[Se])sc2n1`, for which the EC50 was more than 200 µM and the IC50 turned out to be 8.51 µM.

As to `O=C(O)c1c2c(cc3c1CC1(Cc4ccccc4C1)C3)CCC2`, the EC50 is more than 200 µM and the IC50 came out at 45.7 µM.

Turning to `O=C(/C=N/O)Nc1ccc(Cl)c(I)c1`, the EC50 was more than 79.4 µM and the IC50 worked out at 64.6 µM.

With `CCCCCCCC(=O)OC(CBr)COC(=O)C(C)(C)C` (configuration not stated), the EC50 is more than 251 µM and the IC50 was 191 µM.

Take `CSC1=C(c2ccc(Cl)cc2)SC(N2CCCCC2)N1c1ccc([N+](=O)[O-])cc1` (configuration not stated): the EC50 was more than 200 µM and the IC50 came out at 97.7 µM.

With `COC(=O)c1c(C)cccc1C1CN=NC12Cc1c(C)cccc1C2=O` (configuration not stated), the EC50 was 36.3 µM and the IC50 stood at 72.4 µM.

In the case of `Cc1ccc(C)n1-n1c(Cc2ccc(Cl)cc2)n[nH]c1=O`, the EC50 was more than 200 µM and the IC50 came out at 50.1 µM.

Consider `CCOC(=O)/C(=C/c1ccccn1)C(=O)c1ccccc1`, for which the EC50 is more than 240 µM and the IC50 worked out at 12.6 µM.

Regarding `CC(=O)Oc1ccc(OC(Oc2ccccc2)c2ccccc2)cc1` (configuration not stated), the EC50 is more than 89.1 µM and the IC50 came to 60.3 µM.

In the case of `CC(OC(C)(C)C)C(NC(=O)C(CCCCNC(=O)OC(C)(C)C)NC(=O)C(Cc1c[nH]c2ccccc12)NC(=O)C(Cc1ccccc1)NC(=O)OCc1ccccc1)C(=O)NC(Cc1ccccc1)C(=O)O` (configuration not stated) (Cbz-FWK(Boc)T(tBu)F-OH; configuration not given here), the EC50 is more than 200 µM and the IC50 worked out at 35.5 µM.

For `CCCCCCC(=O)c1c(O)c2ccccc2oc1=O`, the EC50 is more than 200 µM and the IC50 came to 29.5 µM.

Take `O=C1c2ccccc2C(=O)c2c(O)ccc(O)c21`: the EC50 is more than 77.6 µM and the IC50 is more than 77.6 µM.

Take `CC1=CC(C)(C)NN1C1=NS(=O)(=O)c2ccccc2N1C`: the EC50 was more than 200 µM and the IC50 was more than 200 µM.

`O=c1oc(=O)c2cc3c(=O)oc(=O)c3cc12`: the EC50 was more than 200 µM and the half-inhibitory concentration (IC50) is more than 200 µM.

Consider `Cc1ccc2c(n1)C(N(C)C)=CC(=O)C2=O`, for which the result was inactive.

In the case of `CCC/C(=N\NC(=S)N1CCN(c2ccccn2)CC1)c1ccccn1`, the EC50 was more than 19.5 µM and the IC50 was 0.011 µM.

As to `N#Cc1ccccc1NC(=O)/C(=N\NC(=O)c1ccncc1)C(c1cnc2ccc([N+](=O)[O-])cc2n1)[N+](=O)[O-]` (configuration not stated), the EC50 was more than 479 µM and the IC50 turned out to be 191 µM.

As for `Cn1c(=O)c2c(nc3n2CCC(=O)N3CCCCl)n(C)c1=O`, the EC50 was more than 200 µM and the IC50 came out at 166 µM.

Take `Cc1ccc2ccc3ccc(C)nc3c2n1.Cc1ccc2ccc3ccc(C)nc3c2n1.O=C1OC(C(O)C[O-])C(O)=C1O.[Cu+]`: the EC50 was more than 12.6 µM and the IC50 came to 0.0871 µM.

As to `Cc1ccccc1OCC(COC(=O)Nc1ccccc1)OC(=O)Nc1ccccc1` (configuration not stated), the EC50 is more than 32.4 µM and the IC50 is more than 32.4 µM.

As for `COc1c(-c2ccccc2)nc2ccc(Oc3ccccc3)nn12`, the EC50 is more than 56.2 µM and the IC50 was more than 56.2 µM.

`Cc1nc(C)c(N2CCN(S(N)(=O)=O)CC2)c(=O)[nH]1`: the EC50 was more than 200 µM and the IC50 is more than 200 µM.

Consider `CC(=O)Nc1ccc(/C=c2\sc3nnc(/C=C/c4ccccc4)n3c2=O)cc1`, for which the EC50 is more than 93.3 µM and the IC50 was more than 93.3 µM.

In the case of `COC1CC(CC(C)=O)CN(C#N)CCc2c1[nH]c1ccccc21` (configuration not stated), the EC50 was more than 132 µM and the IC50 is more than 132 µM.

On to `O=C(c1ccncc1)n1nc(-c2ccccc2)c(N=Nc2ccc([N+](=O)[O-])cc2)c1-c1ccccc1`, for which the EC50 was more than 39.8 µM and the IC50 was more than 39.8 µM.

With `COc1ccc(N2C(=O)c3cc(C)cnc3S2(=O)=O)cc1`, the EC50 is 141 µM and the IC50 was more than 200 µM.

With `CCOC(=O)C(NC(=O)c1ccc(N=NN(C)C)cc1)C(C)C` (configuration not stated), the EC50 was more than 407 µM and the IC50 was found to be 309 µM.

With `O=c1cc(N=Nc2ccc(O)cc2)[nH]c(=O)[nH]1`, the EC50 is more than 200 µM and the IC50 came to 11.5 µM.

`C=C1C(=O)OC2/C=C(/CO)C3(O)CC(O)C(C)(CC(OC(=O)/C(C)=C/C)C12)O3` (configuration not stated): the EC50 is more than 631 µM and the IC50 is 1.17 µM.

In the case of `O=C(c1ccccc1)C1CSS(=O)(=O)C1c1ccccc1` (configuration not stated), the EC50 is 27.5 µM and the IC50 is 91.2 µM.

With `N#C/C(=C/c1cccs1)c1cccs1`, the EC50 was more than 200 µM and the IC50 was more than 200 µM.

Take `Clc1ccc(OCc2nnc(CCCCCCCCc3nnc(COc4ccc(Cl)cc4)o3)o2)cc1`: the EC50 was more than 200 µM and the IC50 was determined as 89.1 µM.

Regarding `C1N2CN3CN1CN(C2)C3.[Cu+2]`, the result was inactive.

Take `CCOC(=O)C(CSSCC(NC(C)=O)C(=O)OCC)NC(C)=O` (configuration not stated): the EC50 was 81.3 µM and the IC50 is 141 µM.

With `C=CC[C@@]1(OC(C)=O)C(=O)C(=O)OC1C1COC(C)(C)O1` (some centres not stated), the EC50 is more than 200 µM and the IC50 worked out at 11.2 µM.

For the compound `NCCCCC(NC(=O)C(N)Cc1ccc(O)cc1)C(=O)NC(CCCCN)C(=O)NC(CCCCN)C(=O)ON1C(=O)CCC1=O` (configuration not stated) (H-YKKK-OSu; configuration not given here), the EC50 is 162 µM and the IC50 is more than 200 µM.

In general, EC50 refers to the concentration at which the effect is half-maximal. One may read the IC50 as the point on the concentration scale where inhibition reaches its midpoint. Read a low IC50 as greater potency in that assay.

The values are drawn from PubChem BioAssay AID179 (DTP/NCI, 2004).
